Assay results as given in patent US8241674B2, “Methods and compositions for heavy metal detoxification” (priority 2007, dated 2012).
Where two headings read alike, the source gives them in different places.

Assays:
GST enzyme = assay: GST activity assay in RL-34 cell lysate after treatment; type: cell-based, rat; conditions: RL-34 cells, 2 days, ratio over DMSO control
NQO1 enzyme = assay: NADPH quinone oxido reductase (NQO1) activity assay in RL-34 cell lysate after treatment; conditions: RL-34 cells, 2 days, ratio of treated over vehicle control
[1] = test system: metallothionein (MT 1, 2)
[2] = test system: heme oxygenase (HO-1) luciferase reporter; assay: Heme oxygenase (HO-1) luciferase reporter in HepG2 cells; conditions: HepG2 cell line; for Fold Induction of heme oxygenase luciferase activity: 24 hours, ratio over vehicle control, concentration not given; for expression of heme oxygenase promoter activity (in words): thirty percent induction over DMSO control considered active
[3] = test system: phase II enzymes (GSTA1 and NQO1)
Nrf-2 = assay: Western blot of Nrf-2 in the nuclear fraction of HepG2 cells; type: cell-based, human; conditions: 4 hours, FIGS. 3 and 4
Description: Western blot detection—The HepG2 cell line was cultured as above and test compounds were added for four hours, after which the cells were lysed and the nuclear fraction was isolated (Dignam, J. D., R. M. Lebovitz, and R. G. Roeder, Nucleic Acids Res, 11(5): 1475-89, 1983). Total protein concentration was determined using the Bicinchoninic Acid Kit (Sigma). Total cell lysates (60 μg total protein) were electrophoresed and detection of Nrf-2 was performed using primary antibody incubation overnight at 4° C. (Santa Cruz Biotechnology, Inc, Santa Cruz, Calif.). Secondary antibody linked to horseradish peroxidase was incubated for one h (GE Healthcare, Piscataway, N.J.), after which proteins were visualized using the enhanced chemiluminescence (ECL) system. Densitometry was performed using Kodak Molecular Imaging Software v.4.0 (Eastman Kodak Company, Rochester, N.Y.) measuring the net intensity of the band.

[4] = HepG2 cells, 8 hours, 25 μg/ml, average of GSTA1 and NQO1

C=C1CC[C@@H]2[C@](C)(CO)[C@H](O)CC[C@@]2(C)[C@@H]1C/C=C1/C(=O)OC[C@H]1O [Andrographis, 3-(2-(Decahydro-6-hydroxy-5-(hydroxymethyl)-5,8a-dimethyl-2-methylenenaphthyl)ethylidene)dihydro-4-hydroxyfuran-2(3H)-one]
Fold Induction of GST activity (GST enzyme; 25 ug/mL): 1.4 fold | HMOX1 Ratio to DMSO (heme oxygenase (HMOX1); HepG2 cells, 8 hours, 25 μg/ml): 2.43 | Induction of NQO1 activity (NQO1 enzyme; 25 ug/mL): 4.5 | MT 1,2 (ave) Ratio to DMSO ([1]; HepG2 cells, 8 hours, 25 μg/ml): 0.87 | Fold Induction of heme oxygenase luciferase activity [2]: 4.4 fold | Phase II (ave) Ratio to DMSO [3, 4]: 2.29

COc1ccc2cc3[n+](cc2c1OC)CCc1cc2c(cc1-3)OCO2 [Berberine]
Fold Induction of GST activity (GST enzyme; 20 ug/mL): 1.0 fold | Induction of NQO1 activity (NQO1 enzyme; 20 ug/mL): 1.4

O=c1c(-c2ccc(O)cc2)coc2cc(O)cc(O)c12 [Bonistein]
Fold Induction of GST activity (GST enzyme; 20 ug/mL): 1.0 fold | Induction of NQO1 activity (NQO1 enzyme; 20 ug/mL): 1.2

[Cl][Cd][Cl] [CdCl2, reference compound]
HMOX1 Ratio to DMSO (heme oxygenase (HMOX1); HepG2 cells, 8 hours, 40 uM): 21.23 | HMOX1 gene induction (in words) (heme oxygenase (HMOX1); HepG2 cells, controls): induce | MT 1,2 (ave) Ratio to DMSO ([1]; HepG2 cells, 8 hours, 40 uM): 83.31 | MT gene induction (in words) ([1]; HepG2 cells, controls): induce | Phase II (ave) Ratio to DMSO ([3]; HepG2 cells, 8 hours, 40 uM, average of GSTA1 and NQO1): 0.94 | phase II gene induction (in words) ([3]; HepG2 cells, controls): unable to increase

COc1cc(C=CC(=O)CC(=O)C=Cc2ccc(O)c(OC)c2)ccc1O [Curcumin, 1,7-Bis(4-hydroxy-3-methoxyphenyl)hepta-1,6-diene-3,5-dione]
Fold Induction of GST activity (GST enzyme; 5 ug/mL): 1.0 fold | HMOX1 Ratio to DMSO (heme oxygenase (HMOX1); HepG2 cells, 8 hours, 5 μg/ml): 2.09 | Induction of NQO1 activity (NQO1 enzyme; 5 ug/mL): 4.6 | MT 1,2 (ave) Ratio to DMSO ([1]; HepG2 cells, 8 hours, 5 μg/ml): 0.90 | Fold Induction of heme oxygenase luciferase activity [2]: 6.1 fold | expression of heme oxygenase promoter activity (in words) [2]: induced | Phase II (ave) Ratio to DMSO ([3]; HepG2 cells, 8 hours, 5 μg/ml, average of GSTA1 and NQO1): 1.15

CC/C=C\C/C=C\C/C=C\C/C=C\C/C=C\C/C=C\CCC(=O)O [DHA]
Fold Induction of GST activity (GST enzyme; 20 ug/mL): 1.0 fold | Induction of NQO1 activity (NQO1 enzyme; 20 ug/mL): 0.9

C[C@]12CC[C@H](O)CC1=CC[C@@H]1[C@@H]2CC[C@]2(C)C(=O)CC[C@@H]12 [DHEA]
Induction of NQO1 activity (NQO1 enzyme; 20 ug/mL): 1.1

c1ccc2c(Cc3c[nH]c4ccccc34)c[nH]c2c1 [DIM]
Induction of NQO1 activity (NQO1 enzyme; 25 ug/mL): 1.5

CC1(C)C=Cc2c(ccc3c2OC[C@@H](c2ccc(O)cc2O)C3)O1 [Glabridin]
Fold Induction of GST activity (GST enzyme; 20 ug/mL): 1.0 fold | Induction of NQO1 activity (NQO1 enzyme; 20 ug/mL): 1.0

N[C@H]1C(O)O[C@H](CO)[C@@H](O)[C@@H]1O (stereo partly drawn) [Glucosamine]
Fold Induction of GST activity (GST enzyme; 20 ug/mL): 1.1 fold | Induction of NQO1 activity (NQO1 enzyme; 20 ug/mL): 1.0

OCc1c[nH]c2ccccc12 [I3C]
Fold Induction of GST activity (GST enzyme; 25 ug/mL): 1.1 fold | Induction of NQO1 activity (NQO1 enzyme; 25 ug/mL): 2.4

CC(C)Oc1ccc2c(=O)c(-c3ccccc3)coc2c1 [Ipriflavone]
Fold Induction of GST activity (GST enzyme; 20 ug/mL): 1.1 fold | Induction of NQO1 activity (NQO1 enzyme; 20 ug/mL): 0.8

O=C([O-])CC(O)(CC(=O)[O-])C(=O)[O-].[K+].[K+].[K+] [K-Citrate]
Fold Induction of GST activity (GST enzyme; 20 ug/mL): 1.1 fold | Induction of NQO1 activity (NQO1 enzyme; 20 ug/mL): 0.9

CC1(C)CC[C@]2(C(=O)O)CC[C@]3(C)C(=CC[C@@H]4[C@@]5(C)CC[C@H](O)C(C)(C)[C@@H]5CC[C@]43C)[C@@H]2C1 [Oleanolic acid]
Fold Induction of GST activity (GST enzyme; 25 ug/mL): 1.0 fold | HMOX1 Ratio to DMSO (heme oxygenase (HMOX1); HepG2 cells, 8 hours, 25 μg/ml): 1.88 | Induction of NQO1 activity (NQO1 enzyme; 25 ug/mL): 1.5 | MT 1,2 (ave) Ratio to DMSO ([1]; HepG2 cells, 8 hours, 25 μg/ml): 2.39 | Fold Induction of heme oxygenase luciferase activity [2]: 2.7 fold | expression of heme oxygenase promoter activity (in words) [2]: induced | Phase II (ave) Ratio to DMSO [3, 4]: 0.91

C/C=C1/[C@H](O[C@@H]2O[C@H](CO)[C@@H](O)[C@H](O)[C@H]2O)OC=C(C(=O)OC)[C@H]1CC(=O)OCCc1ccc(O)c(O)c1 [Oleuropein]
Fold Induction of GST activity (GST enzyme; 20 ug/mL): 1.0 fold | Induction of NQO1 activity (NQO1 enzyme; 20 ug/mL): 1.0

O=C(CCc1ccc(O)cc1)c1c(O)cc(O)cc1O[C@@H]1O[C@H](CO)[C@@H](O)[C@H](O)[C@H]1O [Phloridzin]
Fold Induction of GST activity (GST enzyme; 20 ug/mL): 1.0 fold | Induction of NQO1 activity (NQO1 enzyme; 20 ug/mL): 1.0

O=c1c(O)c(-c2ccc(O)c(O)c2)oc2cc(O)cc(O)c12 [Quercitin]
Fold Induction of GST activity (GST enzyme; 20 ug/mL): 1.0 fold | Induction of NQO1 activity (NQO1 enzyme; 20 ug/mL): 1.4

Oc1ccc(C=Cc2cc(O)cc(O)c2)cc1 [Resveratrol]
Induction of NQO1 activity (NQO1 enzyme; 20 ug/mL): 2.2

C[C@@H]1O[C@@H](OC[C@H]2O[C@@H](Oc3c(-c4ccc(O)c(O)c4)oc4cc(O)cc(O)c4c3=O)[C@H](O)[C@@H](O)[C@@H]2O)[C@H](O)[C@H](O)[C@H]1O [Rutin]
Fold Induction of GST activity (GST enzyme; 20 ug/mL): 1.0 fold | Induction of NQO1 activity (NQO1 enzyme; 20 ug/mL): 0.9

C[S+]([O-])CCCCN=C=S (stereo not drawn) [Sulforaphane, reference compound]
Fold Induction of GST activity (GST enzyme; 3 ug/mL): 1.8 fold | HMOX1 Ratio to DMSO (heme oxygenase (HMOX1)): 8.82 | HMOX1 gene induction (in words) (heme oxygenase (HMOX1)): increased | Nrf-2 nuclear translocation (Nrf-2): dramatic increase | Induction of NQO1 activity (NQO1 enzyme; 3 ug/mL): 3.7 | MT 1,2 (ave) Ratio to DMSO [1]: 0.67 | MT gene induction (in words) [1]: but not MT | Fold Induction of heme oxygenase luciferase activity [2]: 4.2 fold | expression of heme oxygenase promoter activity (in words) [2]: induced | Phase II (ave) Ratio to DMSO [3]: 1.84 | phase II gene induction (in words) [3]: increased

O=c1oc2c(O)c3oc(=O)c4c5c(oc(=O)c6cc(O)c(O)c(O)c65)c(O)c5oc(=O)c(c2c2c(O)c(O)c(O)cc12)c3c54 [Terminalin]
Fold Induction of GST activity (GST enzyme; 25 ug/mL): 1.0 fold | Induction of NQO1 activity (NQO1 enzyme; 25 ug/mL): 1.0 | Fold Induction of heme oxygenase luciferase activity [2]: 1.7 fold | expression of heme oxygenase promoter activity (in words) [2]: induced

O=C1O[C@H]([C@@H](O)CO)C(O)=C1O [Vitamin C]
Fold Induction of GST activity (GST enzyme; 20 ug/mL): 1.1 fold | Induction of NQO1 activity (NQO1 enzyme; 20 ug/mL): 0.9

CC(C)=CCC/C(C)=C/CC/C(C)=C/CC/C(C)=C/CC1=C(C)C(=O)c2ccccc2C1=O [Vitamin K2]
Induction of NQO1 activity (NQO1 enzyme; 20 ug/mL): 0.9

COc1cc(O)c(CC=C(C)C)c(O)c1C(=O)/C=C/c1ccc(O)cc1 [Xanthohumol]
Fold Induction of GST activity (GST enzyme; 1 ug/mL): 1.4 fold | HMOX1 Ratio to DMSO (heme oxygenase (HMOX1); HepG2 cells, 8 hours, 1 μg/ml): 1.11 | Induction of NQO1 activity (NQO1 enzyme; 1 ug/mL): 3.7 | MT 1,2 (ave) Ratio to DMSO ([1]; HepG2 cells, 8 hours, 1 μg/ml): 0.90 | Fold Induction of heme oxygenase luciferase activity [2]: 5.4 fold | expression of heme oxygenase promoter activity (in words) [2]: induced | Phase II (ave) Ratio to DMSO ([3]; HepG2 cells, 8 hours, 1 μg/ml, average of GSTA1 and NQO1): 1.02

[Cl-].[Cl-].[Zn+2] [ZnCl2]
HMOX1 Ratio to DMSO (heme oxygenase (HMOX1); HepG2 cells, 8 hours, 10 μg/ml): 0.97 | MT 1,2 (ave) Ratio to DMSO ([1]; HepG2 cells, 8 hours, 10 μg/ml): 12.43 | Fold Induction of heme oxygenase luciferase activity [2]: 1.5 fold | expression of heme oxygenase promoter activity (in words) [2]: induced | Phase II (ave) Ratio to DMSO ([3]; HepG2 cells, 8 hours, 10 μg/ml, average of GSTA1 and NQO1): 0.94

O=C(/C=C/c1ccc(O)c(O)c1)O[C@@H]1C[C@](O)(C(=O)O)C[C@@H](O)[C@H]1O [chlorogenic acid]
Fold Induction of GST activity (GST enzyme; 25 ug/mL): 1.1 fold | Induction of NQO1 activity (NQO1 enzyme; 25 ug/mL): 1.2

Hyaluronic acid
Induction of NQO1 activity (NQO1 enzyme; 20 ug/mL): 0.9

Inulin
Induction of NQO1 activity (NQO1 enzyme; 20 ug/mL): 0.9
